Measured values reported in patent US9765089B2, “ACC inhibitors and uses thereof” (Gilead Apollo, LLC, priority 2013, dated 2017).
pIC50: −log10 of the molar value.

Legend:
ACC2 [1] = molecular target: ACC2 (Homo sapiens, UniProt O00763); assay: in vitro ACC2 inhibition assay (ADP-Glo); format: biochemical; details: 5 nM ACC2, 20 μM ATP, 20 μM acetyl-CoA, 60 min room temperature, luminescence
Experimental: In Vitro Acetyl-CoA Carboxylase (ACC) Inhibition Assay
An exemplary procedure for the in vitro ACC inhibition assay, which can be used to determine the inhibitory action of compounds of the invention toward either ACCT or ACC2, follows. The ADP-Glo™ Kinase Assay kit from Promega is used. The ADP-Glo™ Kinase Assay is a luminescent ADP detection assay to measure enzymatic activity by quantifying the amount of ADP produced during an enzyme reaction. The assay is performed in two steps; first, after the enzyme reaction, an equal volume of ADP-Glo™ Reagent is added to terminate the reaction and deplete the remaining ATP. Second, the Kinase Detection Reagent is added to simultaneously convert ADP to ATP and allow the newly synthesized ATP to be measured using a luciferase/luciferin reaction. Luminescence can be correlated to ADP concentrations by using an ATP-to-ADP conversion curve. The detailed procedure is as follows. 50 μL of the compound being tested (600 uM in DMSO) is added to a 384-well dilution plate. The compound is diluted 1:3 in succession in DMSO for each row for 11 wells. […] is added to 384-well white Optiplate assay plate. 0.5 μL diluted compound solution in each column from step 2 is added to the assay plate, each row containing 2 replicates. For the last 2 rows, add 0.5 μL negative control (DMSO) in one row and 0.5 μL positive control (compound I-97) in the other. The plates are incubated at room temperature for 15 minutes. 5 μL substrate working solution is added to each well to initiate reaction. Final ACC2 reaction concentrations consist of: 5 nM ACC2, 20 μM ATP, 20 μM acetyl-CoA, 12 mM NaHCO3, 0.01% Brij35, 2 mM DTT, 5% DMSO, test compound concentrations: 30 μM, 10 μM, 3.33 μM, 1.11 μM, 0.37 μM, 0.123 μM, 0.0411 μM, 0.0137 μM, 0.00457 μM, 0.00152 μM, and 0.00051 μM. Plates are incubated at room temperature for 60 minutes. 10 μL ADP glo reagent is added. Plates are incubated at room temperature for 40 minutes. 20 μL kinase detection reagent is added. Plates are incubated at room temperature for 40 minutes, then read on a Perkin Elmer EnVision 2104 plate reader for luminescence as Relative Light Units (RLU).
Data for each concentration, as well as the positive and negative controls are averaged, and the standard deviation calculated. Percent inhibition is calculated by the formula: 100×(average negative control−compound)/(average negative control−average positive control). The IC50 for each compound is calculated by fitting the data with a non-linear regression equation: Y=Bottom+(Top-Bottom)/(1+10^((Log IC50−X)*HillSlope)), where X is the log of compound concentration and Y is percent inhibition.
The compound numbers correspond to the compound numbers in Table 1. Compounds having an activity designated as “AAA” provided an IC50≦0.1 μM; compounds having an activity designated as “AA” provided an IC50≦1 μM; compounds having an activity designated as “A” provided an IC50≦5 μM; compounds having an activity designated as “B” provided an IC50 of 5-20 μM; compounds having an activity designated as “C” provided an IC50 of 20-50 μM; and compounds having an activity designated as “D” provided an IC50≧50 μM

ACC1 = ACC1 isolated from rat, mouse, monkey and human; cited from earlier work
ACC2 [2] = details: ACC2 isolated from rat, mouse, monkey and human; cited from earlier work

ACC2 (Homo sapiens, UniProt O00763), sequence (O00763 whole entry, species assumed): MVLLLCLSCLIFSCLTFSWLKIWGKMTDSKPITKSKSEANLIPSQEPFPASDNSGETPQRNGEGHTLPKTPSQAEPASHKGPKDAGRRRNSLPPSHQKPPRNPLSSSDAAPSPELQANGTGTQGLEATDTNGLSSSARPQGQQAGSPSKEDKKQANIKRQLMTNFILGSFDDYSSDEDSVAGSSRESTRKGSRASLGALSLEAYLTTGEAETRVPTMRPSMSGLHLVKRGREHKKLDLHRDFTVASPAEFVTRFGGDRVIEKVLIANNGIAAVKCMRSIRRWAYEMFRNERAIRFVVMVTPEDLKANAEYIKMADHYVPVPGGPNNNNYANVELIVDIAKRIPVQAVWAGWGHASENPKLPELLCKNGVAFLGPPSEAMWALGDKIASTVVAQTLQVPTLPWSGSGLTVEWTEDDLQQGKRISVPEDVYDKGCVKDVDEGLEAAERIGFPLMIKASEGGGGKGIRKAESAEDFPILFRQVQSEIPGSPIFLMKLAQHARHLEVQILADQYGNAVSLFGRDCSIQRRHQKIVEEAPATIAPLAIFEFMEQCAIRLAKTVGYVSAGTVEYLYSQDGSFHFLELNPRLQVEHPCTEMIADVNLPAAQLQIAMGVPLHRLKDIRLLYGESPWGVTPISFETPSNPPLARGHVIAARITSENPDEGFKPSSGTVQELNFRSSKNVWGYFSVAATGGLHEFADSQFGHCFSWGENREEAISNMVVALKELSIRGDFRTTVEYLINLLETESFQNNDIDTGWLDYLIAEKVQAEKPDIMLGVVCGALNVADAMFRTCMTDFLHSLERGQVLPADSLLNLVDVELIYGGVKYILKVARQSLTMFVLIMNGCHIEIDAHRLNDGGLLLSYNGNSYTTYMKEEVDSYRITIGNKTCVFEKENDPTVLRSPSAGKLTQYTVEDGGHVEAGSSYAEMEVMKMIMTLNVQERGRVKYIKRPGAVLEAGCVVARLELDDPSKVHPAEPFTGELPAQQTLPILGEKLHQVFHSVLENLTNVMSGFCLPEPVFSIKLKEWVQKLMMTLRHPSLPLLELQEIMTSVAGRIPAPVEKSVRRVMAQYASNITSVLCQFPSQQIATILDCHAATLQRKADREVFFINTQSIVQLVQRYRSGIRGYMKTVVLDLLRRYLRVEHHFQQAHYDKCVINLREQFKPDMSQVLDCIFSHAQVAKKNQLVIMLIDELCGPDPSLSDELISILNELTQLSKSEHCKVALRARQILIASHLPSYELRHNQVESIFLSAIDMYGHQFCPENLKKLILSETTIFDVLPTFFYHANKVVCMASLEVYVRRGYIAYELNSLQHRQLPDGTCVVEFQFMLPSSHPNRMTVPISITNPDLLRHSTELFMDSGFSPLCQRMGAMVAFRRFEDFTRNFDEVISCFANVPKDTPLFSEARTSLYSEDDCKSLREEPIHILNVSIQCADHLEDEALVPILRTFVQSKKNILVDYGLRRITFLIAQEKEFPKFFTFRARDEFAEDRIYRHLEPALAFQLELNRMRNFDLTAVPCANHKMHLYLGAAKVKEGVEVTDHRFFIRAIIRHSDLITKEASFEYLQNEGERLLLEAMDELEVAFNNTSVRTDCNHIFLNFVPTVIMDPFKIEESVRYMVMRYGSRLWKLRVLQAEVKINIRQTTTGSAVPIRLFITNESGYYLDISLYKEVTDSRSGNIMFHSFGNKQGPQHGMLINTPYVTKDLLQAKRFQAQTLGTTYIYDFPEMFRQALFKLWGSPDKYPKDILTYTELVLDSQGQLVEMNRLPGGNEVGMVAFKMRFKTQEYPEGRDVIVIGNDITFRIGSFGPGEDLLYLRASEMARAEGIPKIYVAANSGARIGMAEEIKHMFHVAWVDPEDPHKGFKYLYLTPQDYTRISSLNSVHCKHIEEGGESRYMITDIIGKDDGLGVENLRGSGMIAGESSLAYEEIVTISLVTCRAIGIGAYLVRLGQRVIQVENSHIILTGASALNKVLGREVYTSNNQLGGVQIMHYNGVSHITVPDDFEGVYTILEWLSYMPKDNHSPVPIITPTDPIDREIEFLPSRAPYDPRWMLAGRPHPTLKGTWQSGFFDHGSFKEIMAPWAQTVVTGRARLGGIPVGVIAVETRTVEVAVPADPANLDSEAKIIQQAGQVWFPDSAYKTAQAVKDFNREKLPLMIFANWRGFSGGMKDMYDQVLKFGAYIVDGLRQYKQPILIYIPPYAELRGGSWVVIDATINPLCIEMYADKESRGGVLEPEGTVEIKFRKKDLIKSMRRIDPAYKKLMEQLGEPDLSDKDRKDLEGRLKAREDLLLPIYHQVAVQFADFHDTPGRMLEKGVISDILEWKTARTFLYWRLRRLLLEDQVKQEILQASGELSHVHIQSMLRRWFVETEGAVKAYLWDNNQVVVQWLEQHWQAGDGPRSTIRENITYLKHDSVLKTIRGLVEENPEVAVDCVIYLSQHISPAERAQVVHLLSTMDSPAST

| Compound | pIC50 (ACC2 [1]) | pIC50 (ACC1) | pIC50 (ACC2 [2]) |
| --- | --- | --- | --- |
| 2-(4-((R)-2-(5-fluoro-2-methoxyphenyl)-2-((tetrahydro-2H-pyran-4-yl)oxy)ethyl)-7-methyl-6-(oxazol-2-yl)-1,1-dioxido-3-oxo-3,4,4a,7a-tetra-hydro-2H-thieno[2,3-e][1,2,4]thiadiazin-2-yl)acetic acid [Compound I-41] | ≥ 7.00 | – | – |
| O=C(c1c2ccccc2cc2ccccc12)N1CCC(N2CCC[C@@H](C(=O)N3CCOCC3)C2)CC1 [CP-640186] | – | ~7.22 | ~7.22 |
| COc1ccc(F)cc1[C@H](CN1C(=O)N(C(C)(C)C(=O)O)S(=O)(=O)c2c1sc(-c1ncco1)c2C)OC1CCOCC1 [Compound I-42, (R)-2-(4-(2-(5-fluoro-2-methoxyphenyl)-2-((tetrahydro-2H-pyran-4-yl)oxy)ethyl)-7-methyl-6-(oxazol-2-yl)-1,1-dioxido-3-oxo-3,4-dihydro-2H-thieno[2,3-e][1,2,4]thiadiazin-2-yl)-2-methylpropanoic acid] | ≥ 5.30 | – | – |
| COc1ccccc1CCN1c2sc(-c3ncco3)c(C)c2C(=O)N(CC(=O)O)S1(=O)=O [Compound I-43, 2-(1-(2-methoxyphenethyl)-5-methyl-6-(oxazol-2-yl)-2,2-dioxido-4-oxo-1H-thieno[2,3-c][1,2,6]thiadiazin-3(4H)-yl)acetic acid] | 4.70 to 5.30 | – | – |
| COc1ccccc1CCN1c2sc(-c3ncco3)c(C)c2C(=O)N(CC(N)=O)S1(=O)=O [Compound I-44, 2-(1-(2-methoxyphenethyl)-5-methyl-6-(oxazol-2-yl)-2,2-dioxido-4-oxo-1H-thieno[2,3-c][1,2,6]thiadiazin-3(4H)-yl)acetamide] | 4.70 to 5.30 | – | – |
| COc1ccc(F)cc1[C@H](CN1C(=O)N(C(C)(C)C(=O)O)S(=O)(=O)c2c1sc(-c1ncco1)c2C)OC(C)C [Compound I-45, (R)-2-(4-(2-(5-fluoro-2-methoxyphenyl)-2-isopropoxyethyl)-7-methyl-6-(oxazol-2-yl)-1,1-dioxido-3-oxo-3,4-dihydro-2H-thieno[2,3-e][1,2,4]thiadiazin-2-yl)-2-methylpropanoic acid] | 4.70 to 5.30 | – | – |
| COc1ccccc1[C@H](CN1C(=O)N(C(C)(C)C(=O)O)S(=O)(=O)c2c1sc(-c1ncco1)c2C)OC1CCOCC1 [Compound I-46, (R)-2-(4-(2-(2-methoxyphenyl)-2-((tetrahydro-2H-pyran-4-yl)oxy)ethyl)-7-methyl-6-(oxazol-2-yl)-1,1-dioxido-3-oxo-3,4-dihydro-2H-thieno[2,3-e][1,2,4]thiadiazin-2-yl)-2-methylpropanoic acid] | 4.70 to 5.30 | – | – |
| COc1ccccc1[C@H](CN1C(=O)N(C(C)(C)C(=O)O)S(=O)(=O)c2c1sc(-c1ncco1)c2C)O[C@H]1CC[C@@H](O)CC1 [Compound I-47, 2-(4-((R)-2-(((1s,4S)-4-hydroxycyclohexyl)oxy)-2-(2-methoxyphenyl)ethyl)-7-methyl-6-(oxazol-2-yl)-1,1-dioxido-3-oxo-3,4-dihydro-2H-thieno[2,3-e][1,2,4]thiadiazin-2-yl)-2-methylpropanoic acid] | 4.70 to 5.30 | – | – |
| CCOC(=O)c1sc2c(c1C)S(=O)(=O)N(C(C)(C)C(=O)OCc1ccccc1)C(=O)N2C[C@H](OC(C)C)c1cc(F)ccc1OC [Compound I-48, (R)-ethyl 2-(1-(benzyloxy)-2-methyl-1-oxopropan-2-yl)-4-(2-(5-fluoro-2-methoxyphenyl)-2-isopropoxyethyl)-7-methyl-3-oxo-3,4-dihydro-2H-thieno[2,3-e][1,2,4]thiadiazine-6-carboxylate 1,1-dioxide] | 4.70 to 5.30 | – | – |
| COc1ccccc1CCc1nn(CC(=O)O)c(=O)c2c(C)c(-c3ncco3)sc12 [Compound I-49, 2-(7-(2-methoxyphenethyl)-3-methyl-2-(oxazol-2-yl)-4-oxothieno[2,3-d]pyridazin-5(4H)-yl)acetic acid] | ≤ 4.30 | – | – |
